Reference: patent US20020147232A1 (priority 2000, published 2002)

How the values were obtained:
[1] = tested on: pilomotor reaction; conditions: oral, seven healthy volunteers; cited from earlier work
[2] = Stability of desglymidodrine (calibration curve of desglymidodrine); assay type: physicochemical
[3] = Stability of desglymidodrine in solution (comparison of peak areas); assay type: physicochemical; conditions: for 0 days (peak area), autoclave series: before autoclave
From the text: The tablets were subject to stability testning. […] The following initial results were obtained:
Stability of desglymidodrinein solution
Based on comparison of peak areas

[4] = Tsutsui, n = 5 healthy volunteers, label = administered drug, cited from earlier work
[5] = tested on: blood pressure; conditions: cited from earlier work
[6] = tested on: blood pressure; conditions: oral single dose; cited from earlier work
[7] = solution in Buffer pH 7.4, 0 days

Question: For `COc1ccc(OC)c(C(O)CN)c1` (stereo not drawn) [desglymidodrine, alpha-(aminomethyl)-2,5-dimethoxy-benzenemethanol], which “duration of effect (pilomotor reaction)” value [1] is on record?
Answer: 160 (135-185) min

Question: And the “time to occurrence of pilomotor reaction” value [1]?
Answer: 34 ± 25 min

Question: And the “content of desglymidodrine, 14 days” value ([2]; Glass, 25° C./60% RH 1.2mioluxh)?
Answer: 103

Question: What about the “content of desglymidodrine, 0 days” value ([2]; Glass, 25° C./60% RH) of the same compound?
Answer: 100

Question: And the “content of desglymidodrine, 14 days” value ([2]; Glass, 25° C./60% RH)?
Answer: 103

Question: What about the “content of desglymidodrine, 21 days” value ([2]; Glass, 25° C./60% RH) of the same compound?
Answer: 100

Question: What about the “content of desglymidodrine, 14 days” value ([2]; Glass, 40° C./75% RH) of the same compound?
Answer: 102

Question: What about the “content of desglymidodrine, 21 days” value ([2]; Glass, 40° C./75% RH) of the same compound?
Answer: 100

Question: And the “content of desglymidodrine, 0 days” value ([2]; Open petri dish, 25° C./60% RH)?
Answer: 100

Question: What about the “content of desglymidodrine, 14 days” value ([2]; Open petri dish, 25° C./60% RH) of the same compound?
Answer: 102

Question: And the “content of desglymidodrine, 21 days” value ([2]; Open petri dish, 25° C./60% RH)?
Answer: 100

Question: What about the “content of desglymidodrine, 14 days” value ([2]; Open petri dish, 40° C./75% RH) of the same compound?
Answer: 102

Question: What about the “content of desglymidodrine, 21 days” value ([2]; Open petri dish, 40° C./75% RH) of the same compound?
Answer: 97

Question: What about the “peak area, 0 days” value ([3]; solution in 0.1N HCl, 0 days) of the same compound?
Answer: 1548689

Question: And the “0 days (peak area), autoclave series” value ([3]; solution in 0.1N HCl, 0 days)?
Answer: 99

Question: What about the “peak area, 7 days” value ([3]; solution in 0.1N HCl, 7 days) of the same compound?
Answer: 1516212

Question: What about the “Autoclave 120° C.” value ([3]; solution in 0.1N HCl, after autoclave 120° C.) of the same compound?
Answer: 101

Question: What about the “peak area, 0 days” value [3, 7] of the same compound?
Answer: 1341613

Question: And the “0 days (peak area), autoclave series” value [3, 7]?
Answer: 102

Question: And the “peak area, 7 days” value ([3]; solution in Buffer pH 7.4, 7 days)?
Answer: 1289393

Question: And the “Autoclave 120° C.” value ([3]; solution in Buffer pH 7.4, after autoclave 120° C.)?
Answer: 102

Question: And the “peak area, 0 days” value ([3]; solution in Water, 0 days)?
Answer: 1582140

Question: And the “0 days (peak area), autoclave series” value ([3]; solution in Water, 0 days)?
Answer: 100

Question: What about the “peak area, 7 days” value ([3]; solution in Water, 7 days) of the same compound?
Answer: 1601999

Question: What about the “Autoclave 120° C.” value ([3]; solution in Water, after autoclave 120° C.) of the same compound?
Answer: 100

Question: And the Tmax desglymidodrine ([4]; analyte desglymidodrine)?
Answer: 1.2 ± 0.2 h

Question: And the “duration of blood pressure effect” value ([5]; intravenous injection of 5 mg)?
Answer: 3 to 4 min

Question: Which results are given for `COc1ccc(OC)c(C(O)CNC(=O)CN)c1` (stereo not drawn) [midodrine, 2-amino-N-[2-(2,5-dimethoxyphenyl)-2-hydroxyethyl]-acetamide, reference compound]?
Answer: duration of effect (pilomotor reaction) [1]: 150 (30-240) min; time to occurrence of pilomotor reaction [1]: 74 ± 29 min; Tmax midodrine ([4]; analyte midodrine): 1.4 ± 0.2 h; persistence of pressor effect [6]: 3 to 6 h; time until pressor effect is manifest [6]: 20 to 90 min; intravenous dose as potent as 5 mg desglymidodrine i.v. with respect to increase of blood pressure ([5]; intravenous): 20 to 25 mg
